Laboratory results reported in patent US4426382A, “4-Amino-6,7-dimethoxy-2-piperazinylquinazoline derivatives, their preparation and use” (Sankyo Company Limited, priority 1980, dated 1984).
Counter-ions that a name gives are not always drawn.

Key:
[1] = test system: spontaneously hypertensive rats; experiment: antihypertensive activity: blood pressure after oral administration to conscious spontaneously hypertensive rats; type: in vivo; settings: male spontaneously hypertensive rats
Procedure: The animals used in this test were 15 week old male spontaneously hypertensive rats. 3-5 rats were used to test each concentration of each compound. Each animal was treated as follows. […] A polyethylene cannula was then inserted into the abdominal aorta by the method of Weeks and Jones [J. R. Weeks and J. A. Jones, Proc. Soc. […] The other end of the cannula, leading out of the body, was fixed to the neck. One week after the operation, when the animal had recovered from post-operative invasion, this end of the cannula was connected to an apparatus to measure the blood pressure and heart beat directly without the need for any further anesthesia or restraint. The haemomanometer used was an improved type of that originated by Laffan et al. [P. J. Laffan, A. Peterson, S. W. Hitch and C.
The compound under test was suspended at the desired concentration in a 0.3% w/v aqueous solution of carboxymethylcellulose and administered orally in a volume of 2 ml/kg body weight. […] After administration of the sample, the blood pressure and heart beat of each animal were measured for 24 hours at 15 minute intervals.
For purposes of comparison, the same experiment was carried out with various concentrations of the known hypotensive agent, prazosin, in the form of its hydrochloride.
Δmax =Maximum change in blood pressure (mm/Hg) after administration of the compound under test;
Tmax =Time (in hours) after administration of the compound under test required for the blood pressure to obtain a maximum change;
T0.5 max =Time (in hours) after administration of the compound under test for the blood pressure to return to one-half of its maximum value.

[2] = background; cited from earlier work

Structure (SMILES) | T0.5 max, time after administration for the blood pressure to return to one-half of its maximum value ([1]; dose 3 mg/kg oral) [h] | Tmax, time after administration required for the blood pressure to obtain a maximum change ([1]; dose 3 mg/kg oral) [h] | Δmax, maximum change in blood pressure after administration ([1]; dose 3 mg/kg oral) [mmHg] | T0.5 max, time after administration for the blood pressure to return to one-half of its maximum value ([1]; dose 30 mg/kg oral) [h] | Tmax, time after administration required for the blood pressure to obtain a maximum change ([1]; dose 30 mg/kg oral) [h] | Δmax, maximum change in blood pressure after administration ([1]; dose 30 mg/kg oral) [mmHg] | also measured
COc1cc2nc(N3CCN(C(=O)Cc4ccccc4)CC3)nc(N)c2cc1OC [28 hydrochloride hydrate] | 9 | 1 | -30 | 10 | 4 | -50 | –
COc1cc2nc(N3CCN(C(=O)CCc4ccccc4)CC3)nc(N)c2cc1OC [29 hydrochloride hydrate] | 8 | 2 | -30 | 12 | 5 | -45 | –
COc1cc2nc(N3CCN(C(=O)C=C4CCCCC4)CC3)nc(N)c2cc1OC [31 hydrochloride hydrate] | 10 | 1 to 2 | -25 | 14 | 1 to 2 | -40 | –
COc1cc2nc(N3CCN(C(=O)C=C4CCCC4)CC3)nc(N)c2cc1OC [32 hydrochloride hydrate] | 10 | 1 to 2 | -40 | 7 | 1 to 2 | -80 | –
COc1cc2nc(N3CCN(C(=O)C4(c5ccccc5)CC4)CC3)nc(N)c2cc1OC [33 hydrochloride hydrate] | – | – | – | 8.5 | 1 | -50 | –
COc1cc2nc(N3CCN(C(=O)c4ccc(OCc5ccccc5)c(OC)c4)CC3)nc(N)c2cc1OC [94 hydrochloride hemihydrate] | – | – | – | 7 | 5 | -28 | –
COc1cc2nc(N3CCN(C(=O)c4ccc(OCc5ccccc5)c(Cl)c4)CC3)nc(N)c2cc1OC [98 hydrochloride hemihydrate] | – | – | – | 8 | 4 | -30 | –
COc1cc2nc(N3CCN(C(=O)c4ccc(OC(C)c5ccccc5)cc4)CC3)nc(N)c2cc1OC (stereo not shown) [103 hydrochloride sesquihydrate] | – | – | – | 13 | 5 to 6 | -41 | T0.5 max, time after administration for the blood pressure to return to one-half of its maximum value ([1]; dose 10 mg/kg oral): 9.5 h; Tmax, time after administration required for the blood pressure to obtain a maximum change ([1]; dose 10 mg/kg oral): 5 to 6 h; Δmax, maximum change in blood pressure after administration ([1]; dose 10 mg/kg oral): -30 mmHg
C=C(C)C(=O)N1CCN(c2nc(N)c3cc(OC)c(OC)cc3n2)CC1 [Compound No. 2, 4-Amino-6,7-dimethoxy-2-[4-(2-methylacryloyl)-1-piperazinyl]quinazoline] | 3.5 | 0.75 | -25 | 9 | 0.5 | -35 | –
CC=C(C)C(=O)N1CCN(c2nc(N)c3cc(OC)c(OC)cc3n2)CC1 [Compound No. 3, 4-Amino-2-[4-(2,3-dimethylacryloyl)-1-piperazinyl]-6,7-dimethoxyquinazoline] | – | – | – | 2 | 0.5 | -30 | –
COc1cc2nc(N3CCN(C(=O)C=C(C)C)CC3)nc(N)c2cc1OC [Compound No. 4, 4-Amino-2-[4-(3,3-dimethylacryloyl)-1-piperazinyl]-6,7-dimethoxyquinazoline] | – | – | – | 3 | 0.5 | -30 | –
CCC=CC(=O)N1CCN(c2nc(N)c3cc(OC)c(OC)cc3n2)CC1 [Compound No. 5, 4-Amino-6,7-dimethoxy-2-[4-(2-pentenoyl)-1-piperazinyl]quinazoline] | – | 0.5 | -40 | – | – | – | T0.5 max, time after administration for the blood pressure to return to one-half of its maximum value ([1]; dose 3 mg/kg oral, 3 mg/kg): 9 h; T0.5 max, time after administration for the blood pressure to return to one-half of its maximum value ([1]; dose 30 mg/kg oral, 30 mg/kg): 11.5 h; Tmax, time after administration required for the blood pressure to obtain a maximum change ([1]; dose 30 mg/kg oral, 30 mg/kg): 0.5 h; Δmax, maximum change in blood pressure after administration ([1]; dose 30 mg/kg oral, 30 mg/kg): -50 mmHg
C=CCCC(=O)N1CCN(c2nc(N)c3cc(OC)c(OC)cc3n2)CC1 [Compound No. 6, 4-Amino-6,7-dimethoxy-2-[4-(4-pentenoyl)-1-piperazinyl]quinazoline] | 8 | 0.5 | -40 | 13 | 0.5 | -65 | –
CCC=CCC(=O)N1CCN(c2nc(N)c3cc(OC)c(OC)cc3n2)CC1 [Compound No. 7, 4-Amino-2-[4-(3-hexenoyl)-1-piperazinyl]-6,7-dimethoxyquinazoline] | 7 | 0.5 | -20 | 15 | 0.5 | -25 | –
CCCC=CC(=O)N1CCN(c2nc(N)c3cc(OC)c(OC)cc3n2)CC1 [Compound No. 8, 4-Amino-2-[4-(2-hexenoyl)-1-piperazinyl]-6,7-dimethoxyquinazoline] | 4.5 | 0.5 | -35 | 7 | 0.5 | -40 | –
COc1cc2nc(N3CCN(C(=O)c4ccco4)CC3)nc(N)c2cc1OC [prazosin hydrochloride, prazosin, reference compound] | – | 0.5 | -35 | – | 1 | -50 | –
COc1cc2nc(N3CCN(C(=O)c4ccco4)CC3)nc(N)c2cc1OC [prazosin] | – | – | – | – | – | – | antihypertensive activity (in words) [2]: very useful antihypertensive activity; disappearance of hypotensive effect (in words) [2]: the effect tends also to diappear quickly; time to maximum hypotensive effect (in words) [2]: maximum hypotensive effect tends to be achieved very quickly
